Results reported in PMC8843160 (Drug Delivery, 2022).
Values after ≈ are worked out from the molar mass of the structure shown. Read-outs that look alike come from different tables or passages of the source.

Assays:
[1] = In vitro skin permeation, Franz diffusion cells; format: in vitro ADME, porcine; conditions: donor saturated solution in isopropyl myristate; for Q24h, the cumulative amount of drug permeated per unit area at 24 h / Tlag / Jss, the steady-state flux: porcine ear skin, receptor PBS pH 7.4, 32 °C; for Tlag: linear portion of permeation curve extrapolated to the abscissa; for Jss, the steady-state flux: slope of the linear portion of the plots
From the text: According to the description in our previous report (Xu et al., [2011]), the porcine ears immediately obtained from the killed pig were supplied by local slaughterhouse (Xiangtan, China). The hair of porcine ears was carefully cut off with animal hair clippers. Then, skin grafting knife (Medical Equipment Factory of Shanghai Medical Instruments Co., Ltd., Shanghai, China) was employed to separate the skin and subcutaneous fat, and the skin of thickness in range of 0.6 ± 0.1 mm was obtained. The skin was kept frozen at −20 °C no more than 2 weeks.
Two-chamber Franz diffusion cells (receiver volume of 6.5 mL, effective diffusion area of 2.8 cm^2) were used for the in vitro transdermal experiments. The prepared skin was placed between the cell halves with the SC facing the donor cell. The receptor compartment was filled with phosphate buffered saline (pH 7.4), which was put in a water bath at 32 ± 0.5 °C and stirred with a magnetic bar at 300 rpm. The saturated solution of DCN and its ion-pair compounds in isopropyl myristate was filled in the donor cell, and a glass sheet was employed to cover the supply chamber during the in vitro permeation experiments. Since the experiment started, 1.0 mL sample was withdrawn from the receptor compartment at predetermined time interval 2, 4, 6, 8, 10, 12, 14, and 24 h. Subsequently, the equal volume of fresh PBS was replenished. These investigations were performed with different individual skin at least in triplicate.
(§1) The samples were determined by an LC-20A HPLC system (SHIMADZU, Kyoto, Japan). The separation was achieved on an InertSustain C18 column (4.6 mm × 250 mm, 5 µm, SHIMADZU, Kyoto, Japan) with the flow rate keeping at 1.0 mL/min, the column temperature maintaining at 40 °C and mobile phase consisting of methanol:water (25:75, v/v) with 0.4% phosphoric acid in water. Injection volume for each run was 50 μL, and detection wavelength was 254 nm.

[2] = Equilibrium solubility experiments; format: physicochemical
Description: The obtained complexes were vibrated by ultrasonic for 10 min then continuously shaken in a water bath at 32 °C until equilibrium.
as §1

[3] = Apparent distribution coefficient (Log P), shake-flask method; format: physicochemical; conditions: n-octanol/distilled water, 48 h, 32 °C
Description: as §1

[4] = aqueous buffer, thermodynamic from solid, PBS pH 7.4, 32 °C, read-out: Equilibrium solubility PBS (pH 7.4)
[5] = thermodynamic from solid, isopropyl myristate, 32 °C, read-out: Equilibrium solubility IPM
[6] = thermodynamic from solid, water, 32 °C, read-out: Equilibrium solubility Water

SMILES	Q24h, the cumulative amount of drug permeated per unit area at 24 h [1]	Tlag [1]	Jss, the steady-state flux [1]	also measured
CC(=O)Oc1cccc2c1C(=O)c1c(OC(C)=O)cc(C(=O)O)cc1C2=O.NCCO [DCN-eta]	3.04 ± 0.67 µg/cm^2	1.41 ± 0.56 h	0.09 ± 0.04 µg/cm^2⋅h^–1	solubility thermodynamic at 48 h [2, 4]: 6100 ± 24.7 µg/mL; solubility thermodynamic at 48 h [2, 5]: 121.6 ± 1.2 µg/mL; solubility thermodynamic at 48 h [2, 6]: 3060 ± 35.8 µg/mL
CC(=O)Oc1cccc2c1C(=O)c1c(OC(C)=O)cc(C(=O)O)cc1C2=O.OCCN(CCO)CCO [DCN-Teta]	7.89 ± 0.38 µg/cm^2	1.52 ± 0.48 h	0.17 ± 0.05 µg/cm^2⋅h^–1	transdermal permeation rate (comparison in words) ([1]; porcine ear skin in vitro): highest transdermal permeation rate
CC(=O)Oc1cccc2c1C(=O)c1c(OC(C)=O)cc(C(=O)O)cc1C2=O [DCN, Diacerein, reference compound]	1.83 ± 0.22 µg/cm^2	2.68 ± 0.78 h	0.06 ± 0.01 µg/cm^2⋅h^–1	solubility thermodynamic at 48 h [2, 4]: 1442 ± 5.58 µg/mL (≈ 3910 µM); solubility thermodynamic at 48 h [2, 5]: 83.6 ± 18.1 µg/mL (≈ 227 µM); solubility thermodynamic at 48 h [2, 6]: 8.29 ± 0.27 µg/mL (≈ 22.5 µM); solubility thermodynamic at 48 h ([2]; water, 32 °C, read-out: Equilibrium solubility Water): ≤ 10 µg/mL
CC(=O)Oc1cccc2c1C(=O)c1c(OC(C)=O)cc(C(=O)O)cc1C2=O.CCCCCCCCCCCCCCCCN [DCN-N16]	6.44 ± 0.36 µg/cm^2	1.28 ± 0.23 h	0.22 ± 0.01 µg/cm^2⋅h^–1	
CC(=O)Oc1cccc2c1C(=O)c1c(OC(C)=O)cc(C(=O)O)cc1C2=O.CCCCCCCCCCN [DCN-N10]	6.41 ± 0.23 µg/cm^2	1.38 ± 0.14 h	0.20 ± 0.03 µg/cm^2⋅h^–1	
CC(=O)Oc1cccc2c1C(=O)c1c(OC(C)=O)cc(C(=O)O)cc1C2=O.CCCCCCCCN [DCN-N8]	4.30 ± 0.63 µg/cm^2	2.15 ± 0.22 h	0.14 ± 0.03 µg/cm^2⋅h^–1	
CC(=O)Oc1cccc2c1C(=O)c1c(OC(C)=O)cc(C(=O)O)cc1C2=O.CCCCCCCCCCCCCCN [DCN-N14]	7.03 ± 1.56 µg/cm^2	1.31 ± 0.11 h	0.24 ± 0.05 µg/cm^2⋅h^–1	
CC(=O)Oc1cccc2c1C(=O)c1c(OC(C)=O)cc(C(=O)O)cc1C2=O.OCCNCCO [DCN-Deta]	4.03 ± 0.71 µg/cm^2	2.16 ± 0.55 h	0.11 ± 0.02 µg/cm^2⋅h^–1	
CC(=O)Oc1cccc2c1C(=O)c1c(OC(C)=O)cc(C(=O)O)cc1C2=O.CCN [DCN-ea]	2.17 ± 0.30 µg/cm^2	1.79 ± 0.66 h	0.08 ± 0.02 µg/cm^2⋅h^–1	Log P [3]: –0.39 ± 0.007; Equilibrium solubility PBS (pH 7.4) ([2]; PBS pH 7.4, 32 °C, 48 h): 12155.69 ± 81.21 μg/mL; Equilibrium solubility IPM ([2]; isopropyl myristate, 32 °C, 48 h): 92.80 ± 14.10 µg/mL; Equilibrium solubility Water ([2]; water, 32 °C, 48 h): 6928.52 ± 4.80 µg/mL
CC(=O)Oc1cccc2c1C(=O)c1c(OC(C)=O)cc(C(=O)O)cc1C2=O.CCN(CC)CC [DCN-Tea]	2.85 ± 0.64 µg/cm^2	3.39 ± 0.55 h	0.11 ± 0.04 µg/cm^2⋅h^–1	solubility thermodynamic at 48 h [2, 4]: 8188 ± 44.4 µg/mL; solubility thermodynamic at 48 h [2, 5]: 1385 ± 13.7 µg/mL; solubility thermodynamic at 48 h [2, 6]: 3233 ± 12.6 µg/mL
CC(=O)Oc1cccc2c1C(=O)c1c(OC(C)=O)cc(C(=O)O)cc1C2=O.CCNCC [DCN-Dea]	2.82 ± 0.49 µg/cm^2	4.12 ± 1.14 h	0.10 ± 0.01 µg/cm^2⋅h^–1	
CC(=O)Oc1cccc2c1C(=O)c1c(OC(C)=O)cc(C(=O)O)cc1C2=O.CCCCCCCCCCCCN [DCN-N12]		2.50 ± 0.18 h	0.34 ± 0.02 µg/cm^2⋅h^–1	
CC(=O)Oc1cccc2c1C(=O)c1c(OC(C)=O)cc(C(=O)O)cc1C2=O.CCCCCCN [DCN-N6]	3.86 ± 0.21 µg/cm^2	1.52 ± 0.36 h	0.10 ± 0.02 µg/cm^2⋅h^–1	
CC(=O)Oc1cccc2c1C(=O)c1c(OC(C)=O)cc(C(=O)O)cc1C2=O.CCCCCCCCCCCCCCCCCCN [DCN-N18]	5.97 ± 1.25 µg/cm^2	1.42 ± 0.52 h	0.20 ± 0.01 µg/cm^2⋅h^–1	
